{"source": "patent US10610522B2", "about": "“Methods for retreating irritable bowel syndrome (IBS)” (Salix Pharmaceuticals, Inc., priority 2014, dated 2020)", "key": {"[1]": {"test_system": "non-constipation IBS", "experiment": "Study 2 (TARGET 2): rifaximin 550 mg TID 14 days vs placebo in non-C IBS, 10-week follow-up", "type": "in vivo, human", "method": "The primary efficacy endpoint of the study was the proportion of subjects who achieved adequate relief of IBS symptoms for at least 2 weeks during the first 4 weeks of the 10-week follow-up phase.\nTwo measures of efficacy were assessed.\nSubjects were questioned on the relief of overall IBS symptoms and bloating. […] The analyses defined success as a “yes” response to questions regarding adequate relief. […]\nAll subpopulations in the study responded to therapy. Baseline severity was determined during screening for Abdominal Pain/Discomfort and Bloating, and the number, type (normal, hard, loose) and urgency of bowel movements. Duration of effect was assessed in a ten week follow-up period. […]\nIn TARGET 1 and 2, the primary endpoint was the proportion of patients who achieved adequate relief of IBS symptoms for at least 2 of 4 weeks during the month following 14 days of treatment. Adequate relief was defined as a response of “yes” to the following weekly Subject Global Assessment (SGA) question: “In regards to your IBS symptoms, compared to the way you felt before you started study medication, have you, in the past 7 days, had adequate relief of your IBS symptoms? [Yes/No]”\nThe key secondary endpoint was the proportion of patients who achieved adequate relief of IBS-related bloating for at least 2 of 4 weeks during the month following 2 weeks of treatment. Adequate relief of IBS-related bloating was defined as a response of “yes” to the following weekly (every 7 days) SGA question: “In regards to your IBS symptom of bloating, compared to the way you felt before you started study medication, have you, in the past 7 days, had adequate relief of your IBS symptom of bloating? […]"}, "[2]": {"test_system": "CYP3A4", "experiment": "CYP3A4 induction study"}, "[3]": {"test_system": "non-constipation IBS", "experiment": "Study 2 (TARGET 2): rifaximin 550 mg TID 14 days vs placebo in non-C IBS, 10-week follow-up", "type": "in vivo, human", "conditions": "at least 2 weeks during PEP"}, "[4]": {"target": "cytochrome P450 2C9 (Homo sapiens, UniProt P11712)", "sequence (P11712 whole entry)": "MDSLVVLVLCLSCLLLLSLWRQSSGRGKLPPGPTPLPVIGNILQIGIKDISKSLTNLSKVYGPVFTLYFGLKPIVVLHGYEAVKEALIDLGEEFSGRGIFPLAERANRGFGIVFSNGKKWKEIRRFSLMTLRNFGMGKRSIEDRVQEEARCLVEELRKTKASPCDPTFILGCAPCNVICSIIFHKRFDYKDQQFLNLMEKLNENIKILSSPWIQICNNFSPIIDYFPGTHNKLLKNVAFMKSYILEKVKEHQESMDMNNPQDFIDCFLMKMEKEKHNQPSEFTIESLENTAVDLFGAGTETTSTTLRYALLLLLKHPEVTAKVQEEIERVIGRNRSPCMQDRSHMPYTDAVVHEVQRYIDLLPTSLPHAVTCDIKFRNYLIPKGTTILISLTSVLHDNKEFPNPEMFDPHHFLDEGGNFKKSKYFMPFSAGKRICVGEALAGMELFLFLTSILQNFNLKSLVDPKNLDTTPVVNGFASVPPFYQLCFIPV", "experiment": "In vitro cytochrome P450 inhibition", "type": "biochemical", "conditions": "2 to 200 ng/mL"}, "[5]": {"conditions": "Race: Non-White (N = 31), 550 mg TID, Weeks 3-6"}, "[6]": {"conditions": "Race: White (N = 280), 550 mg TID, Weeks 3-6"}, "[7]": {"conditions": "Study 2, at least 2 weeks during PEP"}, "[8]": {"conditions": "TARGET 2, month following two weeks of treatment, 550 mg TID, N = 315"}}, "note": "Values joined by “and” are separate entries in the source; they are usually repeats but may differ in a detail not shown here. Identical values can stand only once.", "data": [{"smiles": "CO[C@H]1/C=C/O[C@@]2(C)Oc3c(C)c(O)c4c(O)c(c5c(nc6cc(C)ccn65)c4c3C2=O)NC(=O)/C(C)=C\\C=C\\[C@H](C)[C@H](O)[C@@H](C)[C@@H](O)[C@@H](C)[C@H](OC(C)=O)[C@@H]1C", "note": "[Rifaximin, (2S,16Z,18E,20S,21S,22R,23R,24R,25S,26S,27S,28E)-5,6,21,23,25 Pentahydroxy-27-methoxy-2,4,11,16,20,22,24,26-octamethyl-2,7-(epoxypentadeca-(1,11,13)trienimino) benzofuro (4,5-e) pyrido(1,2-a) benzimidazole-1,15(2H)-dione,25-acetate]", "values": [{"measurement": "Adequate relief of IBS symptom of bloating (weekly SGA), Success", "setting": "[1]; [5]", "result": "14 (45.2%) N(%)"}, {"measurement": "Adequate relief of IBS symptoms (weekly SGA), Failure", "setting": "[1]; [5]", "result": "16 (51.6%) N(%)"}, {"measurement": "Adequate relief of IBS symptoms (weekly SGA), Success", "setting": "[1]; [5]", "result": "15 (48.4%) N(%)"}, {"measurement": "Adequate relief of IBS symptom of bloating (weekly SGA), Failure", "setting": "[1]; [6]", "result": "170 (60.7%) N (%)"}, {"measurement": "Adequate relief of IBS symptom of bloating (weekly SGA), Success", "setting": "[1]; [6]", "result": "110 (39.3%) N (%)"}, {"measurement": "Adequate relief of IBS symptoms (weekly SGA), Failure", "setting": "[1]; [6]", "result": "171 (61.1%) N (%)"}, {"measurement": "Adequate relief of IBS symptoms (weekly SGA), Success", "setting": "[1]; [6]", "result": "109 (38.9%) N (%)"}, {"measurement": "IBS symptom of bloating: adequate relief at least 2 out of 4 weeks during weeks 3 through 6 (weekly question)", "setting": "[1]; Study 2 / TARGET 2", "result": 41, "unit": "%"}, {"measurement": "Global IBS symptoms: adequate relief at least 2 out of 4 weeks during weeks 3 through 6 (weekly question)", "setting": "[1]; Study 2 / TARGET 2, 550 mg TID 14 d", "result": "41% and 32% vs 41%"}, {"measurement": "Responders: abdominal pain reduction of 1 point in weekly mean", "setting": "[1]; [7]", "result": 52, "unit": "%"}, {"measurement": "Responders: abdominal pain reduction of 2 point in median", "setting": "[1]; [7]", "result": 41, "unit": "%"}, {"measurement": "Responders: abdominal pain reduction of 3 point in mean", "setting": "[1]; [7]", "result": 6, "unit": "% vs 7%"}, {"measurement": "Responders: abdominal pain reduction of 3 point in median", "setting": "[1]; [7]", "result": 21, "unit": "%"}, {"measurement": "Responders: daily abdominal pain < 2 for at least 50% of days in a week", "setting": "[1]; [7]", "result": 39, "unit": "%"}, {"measurement": "Responders: overall reduction of mean weekly abdominal pain by >= 25%", "setting": "[1]; [7]", "result": 58, "unit": "%"}, {"measurement": "Responders: overall reduction of mean weekly abdominal pain by >= 50%", "setting": "[1]; [7]", "result": 35, "unit": "%"}, {"measurement": "Responders: overall reduction of mean weekly abdominal pain by >= 75%", "setting": "[1]; [7]", "result": 14, "unit": "%"}, {"measurement": "Responders: overall reduction of median weekly abdominal pain by >= 25%", "setting": "[1]; [7]", "result": 62, "unit": "%"}, {"measurement": "Responders: overall reduction of median weekly abdominal pain by >= 50%", "setting": "[1]; [7]", "result": 44, "unit": "%"}, {"measurement": "Abdominal Pain Responders: %", "setting": "[1]; [8]", "result": 52, "unit": "%"}, {"measurement": "Abdominal Pain Responders: n", "setting": "[1]; [8]", "result": 165}, {"measurement": "Abdominal Pain and Stool Consistency Responders: %", "setting": "[1]; [8]", "result": 47, "unit": "%"}, {"measurement": "Abdominal Pain and Stool Consistency Responders: n", "setting": "[1]; [8]", "result": 147}, {"measurement": "Adequate Relief of IBS Symptoms: %", "setting": "[1]; [8]", "result": 41, "unit": "%"}, {"measurement": "Adequate Relief of IBS Symptoms: n", "setting": "[1]; [8]", "result": 128}, {"measurement": "Adequate Relief of IBS-Related Bloating: %", "setting": "[1]; [8]", "result": 41, "unit": "%"}, {"measurement": "Adequate Relief of IBS-Related Bloating: n", "setting": "[1]; [8]", "result": 129}, {"measurement": "Stool Consistency Responders: %", "setting": "[1]; [8]", "result": 74, "unit": "%"}, {"measurement": "Stool Consistency Responders: n", "setting": "[1]; [8]", "result": 233}, {"measurement": "Monthly responders for abdominal pain (≥30% decrease) and stool consistency (score <4)", "setting": "[1]; TARGET 2, ≥2 weeks in month following 2 weeks of treatment", "result": 47, "unit": "%"}, {"measurement": "% with decrease in stool frequency (SF)", "setting": "[1]; Week 1, 550 mg TID", "result": 14.4, "unit": "%"}, {"measurement": "% with decrease in stool frequency (SF)", "setting": "[1]; Week 2, 550 mg TID", "result": 20.6, "unit": "%"}, {"measurement": "% with decrease in stool frequency (SF)", "setting": "[1]; Week 3, 550 mg TID", "result": 22.2, "unit": "%"}, {"measurement": "% with decrease in stool frequency (SF)", "setting": "[1]; Week 4, 550 mg TID", "result": 21.6, "unit": "%"}, {"measurement": "% with decrease in stool frequency (SF)", "setting": "[1]; Week 5, 550 mg TID", "result": 25.7, "unit": "%"}, {"measurement": "% with decrease in stool frequency (SF)", "setting": "[1]; Week 6, 550 mg TID", "result": 22.9, "unit": "%"}, {"measurement": "% with decrease in stool frequency (SF)", "setting": "[1]; Week 7, 550 mg TID", "result": 23.8, "unit": "%"}, {"measurement": "% with decrease in stool frequency (SF)", "setting": "[1]; Week 8, 550 mg TID", "result": 24.4, "unit": "%"}, {"measurement": "% with decrease in stool frequency (SF)", "setting": "[1]; Week 9, 550 mg TID", "result": 25.4, "unit": "%"}, {"measurement": "% with decrease in stool frequency (SF)", "setting": "[1]; Week 10, 550 mg TID", "result": 26.7, "unit": "%"}, {"measurement": "% with decrease in stool frequency (SF)", "setting": "[1]; Week 11, 550 mg TID", "result": 25.4, "unit": "%"}, {"measurement": "% with decrease in stool frequency (SF)", "setting": "[1]; Week 12, 550 mg TID", "result": 27.0, "unit": "%"}, {"measurement": "CYP3A4 induction", "setting": "[2]", "result": "induces CYP3A4"}, {"measurement": "Responders: abdominal pain reduction of 1 point in weekly median", "setting": "[3]", "result": 62, "unit": "%"}, {"measurement": "Responders: abdominal pain reduction of 2 point in mean", "setting": "[3]", "result": 25, "unit": "%"}, {"measurement": "Responders: overall reduction of median weekly abdominal pain by >= 75%", "setting": "[3]", "result": 20, "unit": "%"}, {"measurement": "Severe TEAEs, SAEs, deaths", "setting": "overall in the study", "result": "no severe TEAEs, SAEs, or deaths"}, {"measurement": "Subjects with a TEAE", "setting": "rifaximin treatment period (7 subjects)", "result": 25, "unit": "%"}, {"measurement": "Inhibition of cytochrome P450 2C9", "setting": "[4]", "result": "does not inhibit"}]}]}
